Experimental data as given in patent US11007199B2, “Compositions and methods for ameliorating pain and reducing fever” (The Board of Supervisors of Louisiana State University and …, priority 2017, dated 2021).
Entries after “also recorded” stand apart in the source; their conditions may differ.

Key:
CD-1 male mice [1] = assay: Acetic acid-induced abdominal writhing assay; assay type: in vivo
Description: Acetic acid-induced abdominal writhing assay. Contraction of the abdominal muscle and stretching of the hind limbs is induced as a response to intraperitoneal (ip) injection of an acetic acid solution, as described Hendershot and Forsaith, 1959. In this model of visceral pain, abdominal contractions (writhing) is induced in mice by an ip injection of 0.4% acetic acid at a dose of 10 mL/Kg, 25 min after drug administration. The number of writhes is counted for 10 min beginning 5 min after acetic acid injection.
All groups have been compared to vehicle and differences analyzed by one-way ANOVA followed by Sidak's multiple comparison post hoc test.

CD1 male mice = assay: Tail-flick assay; conditions: in vivo analgesia model, FIG. 8; per os at 40 mg/kg
Description: Tail-flick assay. Analgesic effect of drugs was determined by using the reaction time (latency) of mice to thermal stimulation of the tail tip. All animals (CD1 male mice) were fasted overnight (with free access to water) and their baseline tail flick latency (seconds) was recorded twice for each mouse using an IITC Tail Flick Analgesia Meter.
After measurement of baseline latency, drugs were administered per os at 40 mg/kg to animals belonging to the treatment groups. At 30 minutes post injection, tail flick latency was recorded again, twice for each mouse, to determine total change in latency. Mice were subjected to cold shock by dipping their tails into ice-cold water at 4° C.
Percentage of maximum analgesia for each mouse were calculated with the formula, Percentage Analgesia=100*{[(Latency to tail flick after drug injection)−(Latency to tail flick at baseline)]/[(12 sec cutoff time)−(Baseline latency)]}. Data expressed as mean±SEM, n=10.

rats = assay: Von Frey analgesia assay; conditions: in vivo analgesia model, FIG. 8; IP injection
Description: Von Frey analgesia assay. Twenty rats are brought into the eVF room and allowed to acclimate to the room for 30 minutes. At the 30 minute mark, saline injections begin. 30 minutes after the saline injection, the eVF readings of the rats are taken by applying the filament of the eVF machine to the center of the bottom of the hind paws (left and right) of each rat. The filament uses a magnet to remain attached to the probe, which measures the pressure in grams applied to the filament. The pressure readout is then recorded from the transducer.
After saline injections, a drug is injected (different compound each day). In the same manner as saline injections, at the 30 minute mark after each drug injection, eVF readings of each rat are taken.
Drug Injection/Concentration: All drugs and saline were administered by intraperitoneal (IP) injection. Each injection was 1 mL/kg of body weight (i.e., 463 g rat received 0.463 mL of injection). Four doses on a logarithmic scale for ApAP w ere used. 10 mg/kg, 32 mg/kg, 100 mg/kg, and 320 mg/kg.

CD-1 male mice [2] = assay: Baker yeast-induced hyperthermia (antipyresis); assay type: in vivo; conditions: 50 mg/kg bw p.o., baker's yeast-induced fever, FIG. 5
Description: The antipyretic effect of the compounds was assessed utilizing baker yeast-induced hyperthermia. All animals (CD-1 male mice weighing between 45-50 g) were fasted overnight (with free access to water) and their baseline temperature was recorded using a Cole-[…] rectal thermometer probe. […] (206% […].); (Groups 5-6) DEA salt-Brewer's yeast soln. (20% w/v) (i.p.) and DEA Salt (50 mg/kg bw) (p.o.). Two hours post-injection, rectal temperatures were recorded once again, to determine total change in body temperature. Percentage Change in body temperature is calculated with the formula, Percentage Change=[(Total change in body temperature)/(Base temperature)*100]. Data is expressed as mean±SEM, n=10.

hepatocytes = assay: Hepatotoxicity (LDH assay, GSH assay); assay type: cell-based; conditions: FIG. 6
Description: LDH assay. Using the Pierce LDH Cytotoxicity assay kit from Thermo Scientific, cells were incubated in presence of various drug compounds, followed by collection of the medium supernatant. Release of LDH was measured in 96 well plate formats. The absorbance was measured at 490 nm and 680 nm and the final result was absorbance observed at 680 nm subtracted from absorbance observed at 490 nm (A490nw-A680nm).
GSH assay. Using the ThiolTracker Violet Glutathione Detection reagent from Molecular Probes (Invitrogen), after hepatocytes were incubated in the presence of various compounds, incubation medium was removed, cells rinsed with D-PBS conditioned medium followed by incubation with pre-warmed ThiolTracker Violet dye (working solution prepared as per manufacturer's instructions) for 30 minutes. Fluorescence was measured at the following wavelengths: excitation (404 nm) and emission (526 nm). The finalized result was expressed as relative fluorescence units (RFU), which indicates the cellular level of reduced glutathione (GSH) in intact cells.
Hepatotoxicity results for the inventive DEA salt compound are shown m FIG. 6.

CCNCC.O=C(CNS(=O)(=O)c1ccccc1C(=O)O)Nc1ccc(O)cc1 [DEA salt, 2-[[2-(4-hydroxyanilino)-2-oxo-ethyl]sulfamoyl]benzoate diethylammonium salt]
calculated 50% effective dose (ED50) based on the writhing assay (CD-1 male mice [1]; CD-1 male mice, per os, ip 0.4% acetic acid): 10.3 mg/kg
number of writhes induced by injection of acetic acid (CD-1 male mice [1]; FIG. 8, vehicle only nearly 40): under 20
reducing pain versus ApAP, acetic acid-induced abdominal writhing (CD-1 male mice [1]; in vivo analgesia model, FIG. 8): comparable to ApAP in reducing pain
reducing pain versus ApAP, tail flick assay (CD1 male mice): comparable to ApAP in reducing pain
reducing pain versus ApAP, Von Frey assay (rats): comparable to ApAP in reducing pain
antipyretic effect versus ApAP (CD-1 male mice [2]): antipyretic effect comparable to ApAP
hepatotoxicity versus ApAP (hepatocytes): minimal hepatotoxicity; also recorded: decreased toxicity
